Columns and labels:
Assay type in all cases: cell-based
bacteriophage MS2 [1] = experiment: Inactivation of bacteriophage MS2 in human blood plasma by pressure cycling and 1-(2-aminoethyl)aziridine (plaque assay on E. coli)
[2] = system: Feline rhinotrachetis virus; experiment: Inactivation of feline rhinotrachetis virus in human blood plasma by pressure and HMT with UV (plaque assay on feline cells Fc3Tg)
Procedure: The infectivity of the virus suspension is determined by duplicate plaque assays on cultured feline cells, Fc3Tg (ATCC CCL 176) with a methylcellulose overlay. The sample is split into four aliquots and are treated as follows: 1) aliquot 1—no treatment; […] 4) aliquot 4—nothing added and pressurized to 30,000 psi for 10 minutes. All samples are held at a temperature of 25° C. throughout the experiment. After treatment, the plasma is serially diluted, mixed with cultured feline cells and plated on agar.

[3] = system: Feline rhinotrachetis virus; experiment: Inactivation of feline rhinotrachetis virus in human blood plasma by pressure cycling and S-59 with UV (plaque assay on feline cells)
SV 40 = experiment: Inactivation of SV 40 in human blood plasma by pressure cycling and DNase (plaque assay on primate cells)
bacteriophage MS2 [4] = experiment: Inactivation of bacteriophage MS2 in human blood plasma by pressure and RNase (plaque assay on E. coli)

Molecule: NCCN1CC1 [1-(2-aminoethyl)aziridine]
- reduction in viral titer, combination with pressure cycling versus sum of the reductions of the single treatments (bacteriophage MS2 [1]; 0.007 M 1-(2-aminoethyl)aziridine, 80,000 psi for 10 minutes, 20 cycles, 25° C., human blood plasma, 10^8 pfu per ml MS2): significantly greater reduction in viral titer
- viral inactivation under pressure cycling at lower concentrations (bacteriophage MS2 [1]; similar experiments with lower concentrations of 1-(2-aminoethyl)aziridine, with pressure cycling): equivalent viral inactivation with lower concentrations of 1-(2-aminoethyl)aziridine or with shorter incubation time

Molecule: Cc1oc2c(C)c3oc(=O)cc(C)c3cc2c1CO [HMT, 4′-hydroxymethyl-4,5′,8-trimethylpsoralen]
- reduction in viral titer, combination with pressure versus sum of the reductions of the single treatments ([2]; 20 μg/ml HMT, 30,000 psi for 10 minutes, then longwave UV light (320 to 380 nm) 10 minutes, 25° C., human blood plasma, 2×10^7 pfu per ml): significantly greater reduction in viral titer
- viral inactivation under pressure at lower concentrations ([2]; similar experiments with lower concentrations of HMT, with pressure): equivalent viral inactivation with lower concentrations

Molecule: Cc1oc2c(C)c3oc(=O)cc(C)c3cc2c1COCCN [S-59, 4′-(4-amino-2-oxa)butyl-4,5′,8-trimethylpsoralen]
- reduction in viral titer, combination with pressure cycling versus sum of the reductions of the single treatments ([3]; 150 μM S-59, longwave UV light 10 minutes, 90,000 psi for 5 minutes, 24 cycles, then UV ten minutes, 25° C., human blood plasma, 2×10^7 pfu per ml): significantly greater reduction in viral titer
- viral inactivation under pressure cycling at lower concentrations ([3]; similar experiments with lower concentrations of S-59, with pressure cycling): equivalent viral inactivation with lower concentrations

Molecule: DNase
- reduction in viral titer, combination with pressure cycling versus sum of the reductions of the single treatments (SV 40; 20 μg/ml DNase I, 90,000 psi for 10 minutes, 25 cycles, 37° C., human blood plasma, 10^8 pfu per ml SV 40): significantly greater reduction in viral titer
- viral inactivation under pressure cycling at lower concentrations (SV 40; similar experiments with lower concentrations of DNase, with pressure cycling): equivalent viral inactivation with lower concentrations of DNase or with shorter incubation time

B1: RNase: ribonuclease, enzyme that hydrolyzes RNA; RNase A used at 10 μg/ml (protein, UniProt P61823 27-150, looked up)
Ribonuclease pancreatic: KETAAAKFERQHMDSSTSAASSSNYCNQMMKSRNLTKDRCKPVNTFVHESLADVQAVCSQKNVACKNGQTNCYQSYSTMSITDCRETGSSKYPNCAYKTTQANKHIIVACEGNPYVPVHFDASV
- reduction in viral titer, combination with pressure versus sum of the reductions of the single treatments (bacteriophage MS2 [4]; 10 μg/ml RNase A, 25,000 psi for 20 minutes, 37° C., human blood plasma, 10^8 pfu per ml MS2): significantly greater reduction in viral titer
- viral inactivation under pressure at lower concentrations (bacteriophage MS2 [4]; similar experiments with lower concentrations of RNase, with pressure): equivalent viral inactivation with lower concentrations of RNase or with shorter incubation time
